The source made the active and inactive calls. No rule for the calls is given here.
System: CCRIS mutagenicity, Ames/micronucleus/aberration tests
Experiment: CCRIS mutagenicity studies

Measured: mutagenic call

CCN(N=O)c1ccccc1
inactive: Test System: AMES SALMONELLA TYPHIMURIUM, Strain/Indicator: TA1537, Metabolic Activation: HAMSTER, LIVER, S-9, AROCLOR 1254, Method: PREINCUBATION inactive; negative | Test System: AMES SALMONELLA TYPHIMURIUM, Strain/Indicator: TA1537, Metabolic Activation: HAMSTER, LIVER, S-9, AROCLOR 1254, Method: STANDARD PLATE inactive; negative | Test System: AMES SALMONELLA TYPHIMURIUM, Strain/Indicator: TA1537, Metabolic Activation: HAMSTER, LIVER, S-9, Method: PREINCUBATION inactive; negative | Test System: AMES SALMONELLA TYPHIMURIUM, Strain/Indicator: TA1537, Metabolic Activation: HAMSTER, LIVER, S-9, Method: STANDARD PLATE inactive; negative | Test System: AMES SALMONELLA TYPHIMURIUM, Strain/Indicator: TA1537, Metabolic Activation: MOUSE, LIVER, S-9, AROCLOR 1254, Method: PREINCUBATION inactive; negative | Test System: AMES SALMONELLA TYPHIMURIUM, Strain/Indicator: TA1537, Metabolic Activation: MOUSE, LIVER, S-9, AROCLOR 1254, Method: STANDARD PLATE inactive; negative | Test System: AMES SALMONELLA TYPHIMURIUM, Strain/Indicator: TA1537, Metabolic Activation: MOUSE, LIVER, S-9, Method: PREINCUBATION inactive; negative | Test System: AMES SALMONELLA TYPHIMURIUM, Strain/Indicator: TA1537, Metabolic Activation: MOUSE, LIVER, S-9, Method: STANDARD PLATE inactive; negative | Test System: AMES SALMONELLA TYPHIMURIUM, Strain/Indicator: TA1537, Metabolic Activation: NONE, Method: PREINCUBATION inactive; negative | Test System: AMES SALMONELLA TYPHIMURIUM, Strain/Indicator: TA1537, Metabolic Activation: NONE, Method: STANDARD PLATE inactive; negative | Test System: AMES SALMONELLA TYPHIMURIUM, Strain/Indicator: TA1537, Metabolic Activation: RAT, LIVER, S-9, AROCLOR 1254, Method: PREINCUBATION inactive; negative | Test System: AMES SALMONELLA TYPHIMURIUM, Strain/Indicator: TA1537, Metabolic Activation: RAT, LIVER, S-9, AROCLOR 1254, Method: STANDARD PLATE inactive; negative | Test System: AMES SALMONELLA TYPHIMURIUM, Strain/Indicator: TA1537, Metabolic Activation: RAT, LIVER, S-9, Method: PREINCUBATION inactive; negative | Test System: AMES SALMONELLA TYPHIMURIUM, Strain/Indicator: TA1537, Metabolic Activation: RAT, LIVER, S-9, Method: STANDARD PLATE inactive; negative | Test System: AMES SALMONELLA TYPHIMURIUM, Strain/Indicator: TA1538, Metabolic Activation: HAMSTER, LIVER, S-9, AROCLOR 1254, Method: PREINCUBATION inactive; negative | Test System: AMES SALMONELLA TYPHIMURIUM, Strain/Indicator: TA1538, Metabolic Activation: HAMSTER, LIVER, S-9, AROCLOR 1254, Method: STANDARD PLATE inactive; negative | Test System: AMES SALMONELLA TYPHIMURIUM, Strain/Indicator: TA1538, Metabolic Activation: HAMSTER, LIVER, S-9, Method: PREINCUBATION inactive; negative | Test System: AMES SALMONELLA TYPHIMURIUM, Strain/Indicator: TA1538, Metabolic Activation: HAMSTER, LIVER, S-9, Method: STANDARD PLATE inactive; negative | Test System: AMES SALMONELLA TYPHIMURIUM, Strain/Indicator: TA1538, Metabolic Activation: MOUSE, LIVER, S-9, AROCLOR 1254, Method: PREINCUBATION inactive; negative | Test System: AMES SALMONELLA TYPHIMURIUM, Strain/Indicator: TA1538, Metabolic Activation: MOUSE, LIVER, S-9, AROCLOR 1254, Method: STANDARD PLATE inactive; negative | Test System: AMES SALMONELLA TYPHIMURIUM, Strain/Indicator: TA1538, Metabolic Activation: MOUSE, LIVER, S-9, Method: PREINCUBATION inactive; negative | Test System: AMES SALMONELLA TYPHIMURIUM, Strain/Indicator: TA1538, Metabolic Activation: MOUSE, LIVER, S-9, Method: STANDARD PLATE inactive; negative | Test System: AMES SALMONELLA TYPHIMURIUM, Strain/Indicator: TA1538, Metabolic Activation: NONE, Method: PREINCUBATION inactive; negative | Test System: AMES SALMONELLA TYPHIMURIUM, Strain/Indicator: TA1538, Metabolic Activation: NONE, Method: STANDARD PLATE inactive; negative | Test System: AMES SALMONELLA TYPHIMURIUM, Strain/Indicator: TA1538, Metabolic Activation: RAT, LIVER, S-9, AROCLOR 1254, Method: PREINCUBATION inactive; negative | Test System: AMES SALMONELLA TYPHIMURIUM, Strain/Indicator: TA1538, Metabolic Activation: RAT, LIVER, S-9, AROCLOR 1254, Method: STANDARD PLATE inactive; negative | Test System: AMES SALMONELLA TYPHIMURIUM, Strain/Indicator: TA1538, Metabolic Activation: RAT, LIVER, S-9, Method: PREINCUBATION inactive; negative | Test System: AMES SALMONELLA TYPHIMURIUM, Strain/Indicator: TA1538, Metabolic Activation: RAT, LIVER, S-9, Method: STANDARD PLATE inactive; negative | Test System: E. COLI, Strain/Indicator: WP2 UVRA, Metabolic Activation: HAMSTER, LIVER, S-9, AROCLOR 1254, Method: PREINCUBATION inactive; negative | Test System: E. COLI, Strain/Indicator: WP2 UVRA, Metabolic Activation: HAMSTER, LIVER, S-9, AROCLOR 1254, Method: STANDARD PLATE inactive; negative | Test System: E. COLI, Strain/Indicator: WP2 UVRA, Metabolic Activation: HAMSTER, LIVER, S-9, Method: PREINCUBATION inactive; negative | Test System: E. COLI, Strain/Indicator: WP2 UVRA, Metabolic Activation: HAMSTER, LIVER, S-9, Method: STANDARD PLATE inactive; negative | Test System: E. COLI, Strain/Indicator: WP2 UVRA, Metabolic Activation: MOUSE, LIVER, S-9, AROCLOR 1254, Method: PREINCUBATION inactive; negative | Test System: E. COLI, Strain/Indicator: WP2 UVRA, Metabolic Activation: MOUSE, LIVER, S-9, AROCLOR 1254, Method: STANDARD PLATE inactive; negative | Test System: E. COLI, Strain/Indicator: WP2 UVRA, Metabolic Activation: MOUSE, LIVER, S-9, Method: PREINCUBATION inactive; negative | Test System: E. COLI, Strain/Indicator: WP2 UVRA, Metabolic Activation: MOUSE, LIVER, S-9, Method: STANDARD PLATE inactive; negative | Test System: E. COLI, Strain/Indicator: WP2 UVRA, Metabolic Activation: NONE, Method: PREINCUBATION inactive; negative | Test System: E. COLI, Strain/Indicator: WP2 UVRA, Metabolic Activation: NONE, Method: STANDARD PLATE inactive; negative | Test System: E. COLI, Strain/Indicator: WP2 UVRA, Metabolic Activation: RAT, LIVER, S-9, AROCLOR 1254, Method: PREINCUBATION inactive; negative | Test System: E. COLI, Strain/Indicator: WP2 UVRA, Metabolic Activation: RAT, LIVER, S-9, AROCLOR 1254, Method: STANDARD PLATE inactive; negative | Test System: E. COLI, Strain/Indicator: WP2 UVRA, Metabolic Activation: RAT, LIVER, S-9, Method: PREINCUBATION inactive; negative | Test System: E. COLI, Strain/Indicator: WP2 UVRA, Metabolic Activation: RAT, LIVER, S-9, Method: STANDARD PLATE inactive; negative

Source: PubChem BioAssay AID1259407 (Chemical Carcinogenesis Research Information System (CCRIS), 2018)
